Assay [1] has as its target T1, human V2 receptor (Homo sapiens, UniProt P30518). The assay is described as follows: In-vitro binding assay (3H-arginine-8-vasopressin), V2. The settings on record: membrane containing human V2 receptor; 3H-arginine-8-vasopressin 0.65-0.75 nM. On the procedure: Assay buffer is 50 mM Tris-Cl, 5 mM MgCl2, 0.1% BSA (pH 7.5) containing 5 μg/mL of aprotinin, leupeptin, pepstatin, 50 μg/mL bacitracin, and 1 mM Pefabloc (4-(2-aminoethyl)-benzenesulfonyl fluoride, hydrochloride manufactured by Roche Diagnostics Corporation, Indianapolis, Ind. and distributed by Boehringer Mannheim). […] Into the wells of a 96-well round bottom polypropylene plates are added buffer, test compound, membrane (containing human V1a or V2 receptor), and H3 vasopressin. The reaction plates are allowed to sit at room temperature for one hour. The samples are filtered through Unifilter GF/C plates (PerkinElmer Life Sciences, Boston, Mass.) presoaked in 0.3 polyethyleneimine. The plates are washed 5 times with cold physiological saline containing 0.05% Tween 20. After drying, the bottom of the filter plates are sealed and 0.025 mL of Microscint-20 (Packard Instrument Co, Meriden, Conn.) is added to each filter. The top of the plate is sealed, and the plate is counted.
(§1) The % inhibition for the test results was calculated according to the formula: […]

For assay [2], the target named is T1, human V2 receptor. The assay is described as follows: V2 vasopressin receptor functional activity (cAMP accumulation). It is filed as cell-based. More on the design: expressed in transfected cells; host or cells: HEK-293. The following applies: V2-HEK cells; block of vasopressin-stimulated cAMP accumulation; read-out: V2 (functional) IC50. A general note: Cyclic AMP is a second messenger, typically raised through Gs and lowered through Gi signalling.

In assay [3] the target is T2, human V1a receptor (Homo sapiens, UniProt P37288).
T2 construct: expressed in transfected cells
The assay is described as follows: cell-based.

The target in assay [4] is T2, human V1a receptor. The assay is described as follows: In-vitro binding assay (3H-arginine-8-vasopressin), V1a. The following applies: membrane containing human V1a receptor; 3H-arginine-8-vasopressin 0.65-0.75 nM. On the procedure: Assay buffer is 50 mM Tris-Cl, 5 mM MgCl2, 0.1% BSA (pH 7.5) containing 5 μg/mL of aprotinin, leupeptin, pepstatin, 50 μg/mL bacitracin, and 1 mM Pefabloc (4-(2-aminoethyl)-benzenesulfonyl fluoride, hydrochloride manufactured by Roche Diagnostics Corporation, Indianapolis, Ind. and distributed by Boehringer Mannheim). H3 vasopressin is ^3H-arginine-8-vasopressin (NEN Life Sciences, Boston, Mass.; 68.5 Ci/mmol, final concentration in assay is 0.65-0.75 nM). Into the wells of a 96-well round bottom polypropylene plates are added buffer, test compound, membrane (containing human V1a or V2 receptor), and H3 vasopressin. The reaction plates are allowed to sit at room temperature for one hour. The samples are filtered through Unifilter GF/C plates (PerkinElmer Life Sciences, Boston, Mass.) presoaked in 0.3 polyethyleneimine. The plates are washed 5 times with cold physiological saline containing 0.05% Tween 20. After drying, the bottom of the filter plates are sealed and 0.025 mL of Microscint-20 (Packard Instrument Co, Meriden, Conn.) is added to each filter. The top of the plate is sealed, and the plate is counted. Non-specific binding is determined by the addition of 1.25 μM arginine-8-vasopressin in those wells.
as §1
Where an IC50 value was not obtained, the percent inhibition values are shown in parentheses (*) and were obtained at a test concentration of 0.2 μM.

T1 sequence (P30518 whole entry): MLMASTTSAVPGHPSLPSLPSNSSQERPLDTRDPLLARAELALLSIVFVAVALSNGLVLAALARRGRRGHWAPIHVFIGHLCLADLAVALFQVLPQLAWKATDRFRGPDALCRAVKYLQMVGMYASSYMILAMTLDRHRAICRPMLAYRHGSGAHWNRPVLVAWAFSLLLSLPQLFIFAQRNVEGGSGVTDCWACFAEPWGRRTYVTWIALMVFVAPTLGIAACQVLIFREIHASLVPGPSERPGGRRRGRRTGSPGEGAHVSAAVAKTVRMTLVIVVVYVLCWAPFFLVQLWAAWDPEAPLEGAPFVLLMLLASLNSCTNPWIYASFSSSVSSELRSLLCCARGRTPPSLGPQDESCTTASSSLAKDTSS
T2 sequence (P37288 whole entry): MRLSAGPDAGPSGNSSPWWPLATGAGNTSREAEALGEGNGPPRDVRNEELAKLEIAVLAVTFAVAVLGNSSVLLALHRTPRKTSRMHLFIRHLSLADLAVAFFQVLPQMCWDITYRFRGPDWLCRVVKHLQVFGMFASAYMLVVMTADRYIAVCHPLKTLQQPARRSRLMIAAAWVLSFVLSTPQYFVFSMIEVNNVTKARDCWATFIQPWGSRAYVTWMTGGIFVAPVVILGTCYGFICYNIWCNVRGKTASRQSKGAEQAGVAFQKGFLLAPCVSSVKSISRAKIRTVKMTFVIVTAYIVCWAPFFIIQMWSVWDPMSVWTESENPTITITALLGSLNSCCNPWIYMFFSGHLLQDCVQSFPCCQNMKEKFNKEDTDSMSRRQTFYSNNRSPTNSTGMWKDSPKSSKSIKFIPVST

Turning to `Cn1ccnc1C1=CCCC12CCN(C(=O)c1ccc(NC(=O)c3cc(F)ccc3Cl)cc1)c1ccccc1C2` (stereo not shown) [Cpd 5, N-[4-(2-chloro-5-fluoro-phenylcarbonyl)amino-phenylcarbonyl]-2-(1-methyl-1H-imidazol-2-yl)-spiro[cyclopent-2-ene-1,4′-benzo[b]azepane]], the IC50 (commonly the concentration that inhibits the measured activity by half) on human V2 receptor [1] worked out at 0.084 µM; on human V2 receptor [2], 0.066 µM; at human V1a receptor [3] it was 0.13 µM; on human V1a receptor [4] it was 0.009 µM.
